≈ marks a conversion by molar mass, not a printed value. Bridge positions count the residues as written; N and C are the ends. Side chains are listed from the residue outwards. Peptide text beside a SMILES is read from it. I, II: the chains in the order shown. * marks the point of attachment. Lauroyl = CCCCCCCCCCCC(=O)*; Hexanoyl = CCCCCC(=O)*
Experiments:
[1] = tested on: MRSA (methicillin-resistant S. aureus) isolates; assay: microbe, parasite or virus in culture; format: cell-based
Description: (§1) Clinical isolates of CRE, MRSA and VRE were obtained from Lancet Laboratories, Durban, South Africa, with approval BE394/15 from the Biomedical Research Ethical Committee of the University of KwaZulu-Natal. Five reference strains of bacteria, namely Escherichia coli ATCC 25922, Pseudomonas aeruginosa ATCC 27853, Enterococcus faecium ATCC 35667, Staphylococcus aureus ATCC 29213 and Bacillus subtilis ATCC 6051 were supplied by the American Type Culture Collection (ATCC).
(§2) MIC values were determined by the broth microdilution method and the significance of the values obtained was interpreted following the guidelines of the Clinical and Laboratory Standards for Antimicrobial Susceptibility Testing.. The effect of human serum on the antimicrobial effect of the molecules tested was determined in a similar way to the MIC method used above in a solution of 50% human serum plus Mueller–Hinton broth.

B. subtilis ATCC 6051 = assay: microbe, parasite or virus in culture; format: cell-based, Bacillus subtilis; conditions: ATCC 6051
Description: as §1, §2

E. coli ATCC 25822 = assay: microbe, parasite or virus in culture; format: cell-based, Escherichia coli; conditions: ATCC 25822
Description: as §1, §2

E. faecium ATCC 35667 = assay: microbe, parasite or virus in culture; format: cell-based, Enterococcus faecium; conditions: ATCC 35667
Description: as §1, §2

S. aureus ATCC 29213 = assay: microbe, parasite or virus in culture; format: cell-based, Staphylococcus aureus; conditions: ATCC 29213
Description: as §1, §2

P. aeruginosa ATCC 27853 = assay: microbe, parasite or virus in culture; format: cell-based, Pseudomonas aeruginosa; conditions: ATCC 27853
Description: as §1, §2

in vitro = conditions: human
Description: (§3) Cell viability was evaluated using the colorimetric MTT assay [21]. Human hepatocarcinoma (HepG2) cells and human embryonic kidney 293 (HEK-293) cells used in the drug toxicity assays were obtained from Cellonex (Johannesburg, South Africa). Viable HepG2 and HEK293 cells (20,000 cells/well) were seeded into a 96-well microtiter plate (200 µL) and allowed to attach overnight. The cells were exposed to varying concentrations of the peptides for 24 h. After removal of the treatment medium, 20 µL of MTT salt solution (5 mg/mL in 0.1M phosphate buffer saline (PBS)) and 100 µL of complete cell culture medium (CCM) were added to each well. After a 4 h (37 °C) incubation, the MTT salt solution was discarded and 100 μL of dimethyl sulphoxide (DMSO) were added to each well (1 h, 37 °C). The optical density of the solubilized formazan product was measured at 570 nm (reference λ of 690 nm) using a Bio-tek μQuant spectrophotometer (Winooski, VT, USA). […] GraphPad Prism (V5) (La Jolla, CA, USA) was used to obtain the half maximum inhibitory concentration (IC50) for each compound.

MTT cytotoxicity assay = format: cell-based, human; conditions: human, HepG2 cells, HepG2, 24 h exposure
Description: as §3

VRE, E. faecium isolates = assay: microbe, parasite or virus in culture; format: cell-based
Description: as §1, §2

[2] = methicillin-resistant ) isolates

Compound	MBC (B. subtilis ATCC 6051)	MIC (B. subtilis ATCC 6051)	MBC (E. coli ATCC 25822)	MIC (E. coli ATCC 25822)	MBC (E. faecium ATCC 35667)	MIC (E. faecium ATCC 35667)	MBC (S. aureus ATCC 29213)	MIC (S. aureus ATCC 29213)	MBC (P. aeruginosa ATCC 27853)	MIC (P. aeruginosa ATCC 27853)	further results
CC(=O)N[C@@H](CCCCN)C(=O)N[C@@H](CC(C)C)C(=O)N[C@@H](CCCCN)C(=O)NCCCC[C@H](NC(=O)[C@H](CCCCN)NC(=O)[C@H](CC(C)C)NC(=O)[C@H](CCCCN)NC(C)=O)C(=O)N[C@@H](CCCCN)C(=O)N[C@@H](CC(C)C)C(=O)N[C@@H](CCCCN)C(=O)NCCCC[C@H](NC(=O)[C@H](CCCCN)NC(=O)[C@H](CC(C)C)NC(=O)[C@H](CCCCN)NC(=O)[C@H](CCCCNC(=O)[C@H](CCCCN)NC(=O)[C@H](CC(C)C)NC(=O)[C@H](CCCCN)NC(C)=O)NC(=O)[C@H](CCCCN)NC(=O)[C@H](CC(C)C)NC(=O)[C@H](CCCCN)NC(C)=O)C(=O)N[C@@H](CC(C)C)C(=O)N[C@@H](CC(C)C)C(=O)N[C@@H](CCCCN)C(=O)N[C@@H](CC(C)C)C(=O)N[C@@H](CC(C)C)C(N)=O [Ac-G2KLK-L2KL2, (Ac-KLK)4(KKLK)2KLLKLL-NH2] (I: Ac-KLKK([Lys-Leu-Lys-Ac])KLKKLLKLL-NH2 / II: Ac-KLKK([Lys-Leu-Lys-Ac])KLK; amide I:8-II:C)	16 µg/mL (≈ 4.75 µM)	8 to 16 µg/mL	16 µg/mL (≈ 4.75 µM)	8 to 16 µg/mL	128 µg/mL (≈ 38 µM)	64 µg/mL (≈ 19 µM)	128 µg/mL (≈ 38 µM)	64 µg/mL (≈ 19 µM)	16 µg/mL (≈ 4.75 µM)	8 to 16 µg/mL	MIC [1, 2]: 128 µg/mL (≈ 38 µM)
CC1(C)S[C@@H]2[C@H](NC(=O)[C@H](N)c3ccccc3)C(=O)N2[C@H]1C(=O)O [Amp, reference compound]											MIC ([1]; MRSA isolate 440260): >512 µg/mL; MIC ([1]; MRSA isolate B11970): >512 µg/mL; MIC ([1]; MRSA isolate B13178): >512 µg/mL; MIC ([1]; MRSA isolate P10747): >512 µg/mL; MIC ([1]; MRSA isolate P10781): >512 µg/mL; MIC ([1]; MRSA isolate P11520): 512 µg/mL (≈ 1470 µM); MIC ([1]; MRSA isolate S18155): >512 µg/mL; MIC ([1]; MRSA isolate S18970): >512 µg/mL; MIC ([1]; MRSA isolate S37938): >512 µg/mL; MIC ([1]; MRSA isolate T5683): >512 µg/mL
CCCCCCCCCCCC(=O)N[C@@H](CCCCN)C(=O)N[C@@H](CC(C)C)C(=O)N[C@@H](CCCCN)C(=O)NCCCC[C@H](NC(=O)[C@H](CCCCN)NC(=O)[C@H](CC(C)C)NC(=O)[C@H](CCCCN)NC(=O)CCCCCCCCCCC)C(=O)N[C@@H](CCCCN)C(=O)N[C@@H](CC(C)C)C(=O)N[C@@H](CCCCN)C(=O)NCCCC[C@H](NC(=O)[C@H](CCCCN)NC(=O)[C@H](CC(C)C)NC(=O)[C@H](CCCCN)NC(=O)[C@H](CCCCNC(=O)[C@H](CCCCN)NC(=O)[C@H](CC(C)C)NC(=O)[C@H](CCCCN)NC(=O)CCCCCCCCCCC)NC(=O)[C@H](CCCCN)NC(=O)[C@H](CC(C)C)NC(=O)[C@H](CCCCN)NC(=O)CCCCCCCCCCC)C(=O)N[C@@H](CC(C)C)C(=O)N[C@@H](CC(C)C)C(=O)N[C@@H](CCCCN)C(=O)N[C@@H](CC(C)C)C(=O)N[C@@H](CC(C)C)C(N)=O [Dd-G2KLK-L2KL2, (Dd-KLK)4(KKLK)2KLLKLL-NH2] (I: Lauroyl-KLKK([Lys-Leu-Lys-Lauroyl])KLKKLLKLL-NH2 / II: Lauroyl-KLKK([Lys-Leu-Lys-Lauroyl])KLK; amide I:8-II:C; N-terminus assumed)		>128 µg/mL		>128 µg/mL		>128 µg/mL		>128 µg/mL		>128 µg/mL	
CC(C)C[C@H](NC(=O)[C@H](CC(C)C)NC(=O)[C@H](CCCNC(=N)N)NC(=O)[C@H](CC(C)C)NC(=O)[C@H](CC(C)C)NC(=O)[C@H](CCCCNC(=O)[C@H](CCCNC(=N)N)NC(=O)[C@H](CC(C)C)NC(=O)[C@@H](N)CCCNC(=N)N)NC(=O)[C@H](CCCNC(=N)N)NC(=O)[C@H](CC(C)C)NC(=O)[C@@H](N)CCCNC(=N)N)C(N)=O [G1RLR-L2RL2, (RLR)2KLLRLL-NH2] (H-RLRK([Arg-Leu-Arg])LLRLL-NH2)	32 µg/mL (≈ 19.9 µM)	32 µg/mL (≈ 19.9 µM)	8 µg/mL (≈ 4.98 µM)	8 µg/mL (≈ 4.98 µM)	4 µg/mL (≈ 2.49 µM)	4 µg/mL (≈ 2.49 µM)	16 µg/mL (≈ 9.97 µM)	16 µg/mL (≈ 9.97 µM)	16 µg/mL (≈ 9.97 µM)	16 µg/mL (≈ 9.97 µM)	IC50 at 24 h (in vitro): 153 µg/mL (≈ 95.3 µM); IC50 at 24 h (MTT cytotoxicity assay): 328 µg/mL (≈ 204 µM)
CCCCCC(=O)N[C@@H](CCCCN)C(=O)N[C@@H](CC(C)C)C(=O)N[C@@H](CCCCN)C(=O)NCCCC[C@H](NC(=O)[C@H](CCCCN)NC(=O)[C@H](CC(C)C)NC(=O)[C@H](CCCCN)NC(=O)CCCCC)C(=O)N[C@@H](CCCCN)C(=O)N[C@@H](CC(C)C)C(=O)N[C@@H](CCCCN)C(=O)NCCCC[C@H](NC(=O)[C@H](CCCCN)NC(=O)[C@H](CC(C)C)NC(=O)[C@H](CCCCN)NC(=O)[C@H](CCCCNC(=O)[C@H](CCCCN)NC(=O)[C@H](CC(C)C)NC(=O)[C@H](CCCCN)NC(=O)CCCCC)NC(=O)[C@H](CCCCN)NC(=O)[C@H](CC(C)C)NC(=O)[C@H](CCCCN)NC(=O)CCCCC)C(=O)N[C@@H](CC(C)C)C(=O)N[C@@H](CC(C)C)C(=O)N[C@@H](CCCCN)C(=O)N[C@@H](CC(C)C)C(=O)N[C@@H](CC(C)C)C(N)=O [Hx-G2KLK-L2KL2, (Hx-KLK)4(KKLK)2KLLKLL-NH2] (I: Hexanoyl-KLKK([Lys-Leu-Lys-Hexanoyl])KLKKLLKLL-NH2 / II: Hexanoyl-KLKK([Lys-Leu-Lys-Hexanoyl])KLK; amide I:8-II:C; N-terminus assumed)	128 µg/mL (≈ 35.6 µM)	64 µg/mL (≈ 17.8 µM)	64 µg/mL (≈ 17.8 µM)	64 µg/mL (≈ 17.8 µM)	64 µg/mL (≈ 17.8 µM)	32 µg/mL (≈ 8.91 µM)	128 µg/mL (≈ 35.6 µM)	128 µg/mL (≈ 35.6 µM)	64 µg/mL (≈ 17.8 µM)	64 µg/mL (≈ 17.8 µM)	MIC [1, 2]: 64 µg/mL (≈ 17.8 µM)
CN[C@H](CC(C)C)C(=O)N[C@H]1C(=O)N[C@@H](CC(N)=O)C(=O)N[C@H]2C(=O)N[C@H]3C(=O)N[C@H](C(=O)N[C@H](C(=O)O)c4cc(O)cc(O)c4-c4cc3ccc4O)[C@H](O)c3ccc(c(Cl)c3)Oc3cc2cc(c3O[C@@H]2O[C@H](CO)[C@@H](O)[C@H](O)[C@H]2O[C@H]2C[C@](C)(N)[C@H](O)[C@H](C)O2)Oc2ccc(cc2Cl)[C@H]1O [Van, vancomycin, reference compound]											MIC ([1]; MRSA isolate B11970): 1 µg/mL (≈ 0.69 µM); MIC ([1]; MRSA isolate B13178): 1 µg/mL (≈ 0.69 µM); MIC ([1]; MRSA isolate P10747): 1 µg/mL (≈ 0.69 µM); MIC ([1]; MRSA isolate P10781): 1 µg/mL (≈ 0.69 µM); MIC ([1]; MRSA isolate P11520): 1 µg/mL (≈ 0.69 µM); MIC ([1]; MRSA isolate S18155): 1 µg/mL (≈ 0.69 µM); MIC ([1]; MRSA isolate S37938): 1 µg/mL (≈ 0.69 µM); MIC ([1]; MRSA isolate T5683): 1 µg/mL (≈ 0.69 µM); MIC ([1]; Staphylococcus aureus): 1 µg/mL (≈ 0.69 µM); MIC ([1]; Staphylococcus aureus, MRSA): 1 µg/mL (≈ 0.69 µM); MIC (VRE, E. faecium isolates; Enterococcus faecium): > 128 µg/mL; MIC (VRE, E. faecium isolates; Enterococcus faecium, VRE): > 128 µg/mL; MIC (VRE, E. faecium isolates; VRE E. faecium isolate 938072607): >128 µg/mL; MIC (VRE, E. faecium isolates; VRE E. faecium isolate 938600912): >128 µg/mL; MIC (VRE, E. faecium isolates; VRE E. faecium isolate 938636470): >128 µg/mL; MIC (VRE, E. faecium isolates; VRE E. faecium isolate 938666613): >128 µg/mL; MIC (VRE, E. faecium isolates; VRE E. faecium isolate 945530665): >128 µg/mL; MIC (VRE, E. faecium isolates; VRE E. faecium isolate 951208931): >128 µg/mL; MIC (VRE, E. faecium isolates; VRE E. faecium isolate 951234856): >128 µg/mL; MIC (VRE, E. faecium isolates; VRE E. faecium isolate 951245262): >128 µg/mL
I: H-KLKK([Lys-Leu-Lys])KLKKKLKKLLKLL-NH2 / II: H-KLKK([Lys-Leu-Lys])KLKKKLK / III: H-KLKK([Lys-Leu-Lys])KLK / IV: H-KLKK([Lys-Leu-Lys])KLK (amide I:8-IV:C, I:12-II:C, II:8-III:C) [G3KLK-L2KL2, (KLK)8(KKLK)4(KKLK)2KLLKLL-NH2]	8 µg/mL	4 to 8 µg/mL	32 µg/mL	32 µg/mL	64 µg/mL	64 µg/mL	16 µg/mL	16 µg/mL	16 µg/mL	16 µg/mL	IC50 at 24 h (in vitro): 53.9 µg/mL; IC50 at 24 h (MTT cytotoxicity assay): 25.7 µg/mL

From PMC8228121, “Super-Cationic Peptide Dendrimers—Synthesis and Evaluation as Antimicrobial Agents” (Antibiotics, 2021)
